The target of assay [1] is Transitional endoplasmic reticulum ATPase (Homo sapiens, UniProt P55072, C522A). In words: Luminescence counterscreen assay for p97 inhibitors: dose response biochemical high throughput screening assay to identify inhibitors of the C522A mutant p97 ATPase: synthesized compounds. [Related pubchem assays: 1481, 1517, 1551 ]. A general note: A counterscreen serves to expose hits that act by an unwanted route or on another target.

Assay [2] deals with Transitional endoplasmic reticulum ATPase (Homo sapiens, UniProt P55072). Put plainly: Luminescence dose response biochemical high throughput screening assay for inhibitors of the p97 ATPase: synthesized compounds. [Related pubchem assays: 1481, 1517 ].
Assay [3] addresses Voltage-gated inwardly rectifying potassium channel KCNH2 (Homo sapiens, UniProt Q12809). Put plainly: hERG protection from proarrhythmic block, potency, dose response, cell-based, thallium flux (AID 2121). Type of assay: ADME. Background: The hERG channel carries a current that helps repolarise heart muscle cells.
Assay [4] deals with T1, Tyrosine-protein phosphatase non-receptor type 7 (Homo sapiens, UniProt P35236).
T1 sequence (P35236 whole entry): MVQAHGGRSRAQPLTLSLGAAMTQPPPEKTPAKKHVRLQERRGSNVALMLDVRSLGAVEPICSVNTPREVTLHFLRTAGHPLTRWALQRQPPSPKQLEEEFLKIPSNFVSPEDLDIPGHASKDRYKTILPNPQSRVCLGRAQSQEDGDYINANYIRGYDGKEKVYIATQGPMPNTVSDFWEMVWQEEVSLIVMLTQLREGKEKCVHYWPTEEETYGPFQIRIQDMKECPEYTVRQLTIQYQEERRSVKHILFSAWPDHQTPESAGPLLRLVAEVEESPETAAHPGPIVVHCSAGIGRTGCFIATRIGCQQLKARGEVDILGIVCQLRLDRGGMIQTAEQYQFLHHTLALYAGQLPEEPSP
In words: inhibitors of human HePTP phosphatase, […], biochemical, absorbance, leukemia target (AID 521). Type of assay: functional.

The target in the next assay is Genome polyprotein (Hepatitis C virus, UniProt Q2Q167). Put plainly: HCV core protein dimerization inhibitors, dose response, biochemical, TR-FRET (AID 2159).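 Further: blocks dimerization of HCV core protein measured by TR-FRET between tagged core106 pairs.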 On the set-up: species or system Hepacivirus hominis. A general note: Time-resolved FRET reads energy transfer from a long-lived donor to a nearby acceptor.
Assay [5] has as its target T2, Fatty acid synthase (Homo sapiens, UniProt P49327). In words: FAS thioesterase domain inhibitors, dose response, biochemical, endpoint fluorescence intensity, uHTS hits (AID 624327).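 Further: fluorescence from hydrolysis of an O-methyl fluorescein acyl ester substrate by the enzyme.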 Type of assay: functional.
Assay [6] concerns the target T2, Fatty acid synthase. Put plainly: FAS thioesterase domain inhibitors, dose response, biochemical, kinetic fluorescence intensity (AID 624326).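 Further: rate of fluorescence rise from hydrolysis of a fluorogenic O-methyl fluorescein ester substrate.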 Format: functional.
The target of assay [7] is T3, Zinc finger protein mex-5 (Caenorhabditis elegans, UniProt Q9XUB2).
T3 sequence (Q9XUB2 whole entry): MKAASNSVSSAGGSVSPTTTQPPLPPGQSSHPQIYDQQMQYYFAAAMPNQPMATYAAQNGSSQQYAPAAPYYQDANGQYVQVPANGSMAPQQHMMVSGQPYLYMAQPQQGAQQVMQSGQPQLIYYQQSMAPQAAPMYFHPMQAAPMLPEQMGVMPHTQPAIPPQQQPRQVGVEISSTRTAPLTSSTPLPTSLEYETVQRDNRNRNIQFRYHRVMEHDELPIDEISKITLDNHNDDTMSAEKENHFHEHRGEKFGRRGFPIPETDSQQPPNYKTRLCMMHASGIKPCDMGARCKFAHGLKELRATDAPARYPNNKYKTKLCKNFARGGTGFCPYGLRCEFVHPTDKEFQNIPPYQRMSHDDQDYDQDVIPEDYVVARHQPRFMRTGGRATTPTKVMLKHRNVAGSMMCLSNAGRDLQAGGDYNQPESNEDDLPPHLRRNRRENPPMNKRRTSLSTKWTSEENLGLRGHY
In words: MEX-5/TCR-2 RNA interaction inhibitors, dose response, biochemical, C. elegans, fluorescence polarization (AID 1960).

Assay [8] has as its target T4, RNA-binding protein pos-1 (Caenorhabditis elegans, UniProt G5EF15).
T4 sequence (G5EF15 whole entry): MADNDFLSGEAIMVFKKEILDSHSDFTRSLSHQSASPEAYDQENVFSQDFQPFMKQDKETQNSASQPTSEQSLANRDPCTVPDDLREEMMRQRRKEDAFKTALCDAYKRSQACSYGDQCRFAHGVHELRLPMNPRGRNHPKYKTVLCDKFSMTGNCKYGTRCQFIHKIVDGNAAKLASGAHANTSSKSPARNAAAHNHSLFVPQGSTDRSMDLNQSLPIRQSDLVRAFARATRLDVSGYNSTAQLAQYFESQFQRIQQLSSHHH
In words: inhibitors of POS-1/mex-3 RNA binding, dose response, biochemical, fluorescence polarization (AID 1964).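 Further: purified POS-1 fused to maltose binding protein made in E. coli; potency of compounds blocking POS-1 binding to fluorescent RNA.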

In assay [9] the target is Bifunctional protein GlmU (Mycobacterium tuberculosis, UniProt P9WMN3). In words: Inhibitors of Mycobacterial Glucosamine-1-phosphate acetyl transferase (GlmU). Secondary screen. Further details: species or system Mycobacterium tuberculosis H37Rv.
For assay [10], the system named is Streptococcus sp. 'group A'. In words: growth inhibition of control SK(-) GAS strain, dose response, counter-screen for streptokinase expression inhibitor project, luminescence, kanamycin, BacTiterGlo, confirmation (AID 1900). Type of assay: functional, organism-based.
Assay [11] has as its target Induced myeloid leukemia cell differentiation protein Mcl-1 (Homo sapiens, UniProt Q07820). Type of assay: functional.
For the next assay, the target named is T5, Streptokinase A (Streptococcus pyogenes serotype M1, UniProt P10520).
T5 sequence (P10520 whole entry): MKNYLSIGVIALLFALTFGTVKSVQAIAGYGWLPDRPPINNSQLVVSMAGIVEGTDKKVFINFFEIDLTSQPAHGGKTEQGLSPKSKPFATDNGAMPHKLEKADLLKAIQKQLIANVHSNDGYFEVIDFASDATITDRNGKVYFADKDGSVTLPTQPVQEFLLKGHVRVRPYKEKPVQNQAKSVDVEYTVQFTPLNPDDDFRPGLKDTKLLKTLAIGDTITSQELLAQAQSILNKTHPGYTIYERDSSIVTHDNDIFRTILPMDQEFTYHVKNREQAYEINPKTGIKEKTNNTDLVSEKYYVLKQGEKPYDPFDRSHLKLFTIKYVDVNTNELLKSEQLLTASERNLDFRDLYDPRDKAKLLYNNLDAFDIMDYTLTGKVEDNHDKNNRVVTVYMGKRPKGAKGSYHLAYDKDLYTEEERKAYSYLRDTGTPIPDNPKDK
Put plainly: S. pyogenes streptokinase expression inhibitors, potency, dose response, plasminogen activation absorbance, OD405 (AID 1914).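 Further: secreted streptokinase activity via plasminogen activation per viability signal from cell pellet.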 Format: functional, Streptococcus pyogenes M1 GAS.

The test system of another assay is Streptococcus. In words: Group A Streptococcus viability loss, dose response, counter-screen for streptokinase expression inhibitor project, luminescence, BacTiterGlo (AID 1915).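 Further: potency for reduction of bacterial viability or growth.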 Format: functional, organism-based.
Assay [12] addresses 5-hydroxytryptamine receptor 1A (Homo sapiens, UniProt P08908). Type of assay: functional.
The subject of the next assay is Vero. Put plainly: host cell cytotoxicity of antiviral hits, dose response, cytotoxicity control for West Nile virus antiviral project, secondary assay (AID 1650). As to conditions: Chlorocebus sabaeus. Type of assay: functional.
Assay [13] can be described thus: cytotoxicity in HEK-293T cells, dose response, cytotoxicity control for TCR NF-kB inhibitor project, luminescence, T-cell screen hits (AID 489026).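 Further: cells exposed to compound about 14 hours before the viability readout.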 Type of assay: functional, cell-based.
The target in assay [14] is Diphosphomevalonate decarboxylase (Streptococcus pneumoniae serotype 2 (strain D39 / NCTC 7466), UniProt Q9FD53). In words: S. pneumoniae DPM-DC inhibition retest, confirmation, biochemical, cuvette format, coupled NADH fluorescence (AID 1028). Type of assay: functional.
Sequence of Diphosphomevalonate decarboxylase (Q9FD53 whole entry): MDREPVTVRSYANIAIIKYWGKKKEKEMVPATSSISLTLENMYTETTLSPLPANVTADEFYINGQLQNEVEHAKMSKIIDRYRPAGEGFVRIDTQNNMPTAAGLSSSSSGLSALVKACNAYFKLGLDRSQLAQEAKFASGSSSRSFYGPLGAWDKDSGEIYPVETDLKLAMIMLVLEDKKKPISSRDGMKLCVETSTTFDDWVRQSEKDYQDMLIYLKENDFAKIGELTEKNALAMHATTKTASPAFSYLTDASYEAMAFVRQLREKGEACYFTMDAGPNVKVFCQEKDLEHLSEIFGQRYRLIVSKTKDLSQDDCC
Assay [15] concerns the target Mitogen-activated protein kinase 10 (Homo sapiens, UniProt P53779). Put plainly: Dose response biochemical screening assay for inhibitors of c-Jun N-Terminal Kinase 3 (JNK3). [Related pubchem assays: 746 ].
The nature of assay [16]: growth suppression of beta-catenin-knockout colon cells, dose response, cell-based, HCT116, human colon tumor (AID 1045).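 Further: HCT116 colon tumor cells with beta catenin knocked out; cells exposed to compound for 60 hours.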 Format: functional.
Assay [17] has as its target Protein-tyrosine kinase 2-beta (Homo sapiens, UniProt Q14289).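 Further: potency of inhibitors of PYK2 kinase phosphorylation of poly-GT substrate.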
The target of assay [18] is T6, Dual specificity protein phosphatase 6 (Rattus norvegicus, UniProt Q64346).
T6 sequence (Q64346 whole entry): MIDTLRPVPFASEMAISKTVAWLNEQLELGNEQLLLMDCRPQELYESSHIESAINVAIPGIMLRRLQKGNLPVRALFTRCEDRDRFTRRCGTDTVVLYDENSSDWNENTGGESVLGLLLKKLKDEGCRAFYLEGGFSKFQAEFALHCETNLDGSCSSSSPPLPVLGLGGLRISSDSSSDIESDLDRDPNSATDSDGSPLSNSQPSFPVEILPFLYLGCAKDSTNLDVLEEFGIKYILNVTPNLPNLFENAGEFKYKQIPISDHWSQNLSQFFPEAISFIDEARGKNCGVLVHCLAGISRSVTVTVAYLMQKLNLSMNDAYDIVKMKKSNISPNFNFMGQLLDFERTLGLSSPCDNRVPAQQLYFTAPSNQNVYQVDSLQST
Put plainly: MKP-3 phosphatase inhibitors, primary screen, biochemical, rat enzyme, in vitro (AID 425).

The nature of assay [19]: growth suppression of PTEN-null colon cells, dose response, cell-based, HCT116 PTEN knockout (AID 1047).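 Further: HCT116 colon tumor cells with PTEN knocked out; cells exposed to compound for 60 hours before readout; potency for loss of cell viability measured by luminescence.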 Format: functional.
A short description of assay [20]: Luminescent dose response cell-based high throughput screening assay for inhibitors of the Janus kinase 2 mutant JAK2V617F. [Related pubchem assays: 1446 (Primary screen.), 1521 (Confirmation assay.), 1486 (Counter screen.)]. Format: functional.
For the next assay, the system named is INS1. Put plainly: beta cell apoptosis inhibitors, cytokine rescue, dose response, luminescence, retest (AID 449756).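 Further: cell death triggered by IL-1 beta plus TNF-alpha plus IFN-gamma mixture; protective hits raise ATP signal compared with cytokine alone wells.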 Format: functional, cell-based. As to conditions: Rattus norvegicus.

The values that follow come from ChEMBL document CHEMBL1201862, “PubChem BioAssay data set” (2004).

Each structure is given as a SMILES string. The source made the active and inactive calls.

T2 sequence (P49327 whole entry, the tested form may be a part): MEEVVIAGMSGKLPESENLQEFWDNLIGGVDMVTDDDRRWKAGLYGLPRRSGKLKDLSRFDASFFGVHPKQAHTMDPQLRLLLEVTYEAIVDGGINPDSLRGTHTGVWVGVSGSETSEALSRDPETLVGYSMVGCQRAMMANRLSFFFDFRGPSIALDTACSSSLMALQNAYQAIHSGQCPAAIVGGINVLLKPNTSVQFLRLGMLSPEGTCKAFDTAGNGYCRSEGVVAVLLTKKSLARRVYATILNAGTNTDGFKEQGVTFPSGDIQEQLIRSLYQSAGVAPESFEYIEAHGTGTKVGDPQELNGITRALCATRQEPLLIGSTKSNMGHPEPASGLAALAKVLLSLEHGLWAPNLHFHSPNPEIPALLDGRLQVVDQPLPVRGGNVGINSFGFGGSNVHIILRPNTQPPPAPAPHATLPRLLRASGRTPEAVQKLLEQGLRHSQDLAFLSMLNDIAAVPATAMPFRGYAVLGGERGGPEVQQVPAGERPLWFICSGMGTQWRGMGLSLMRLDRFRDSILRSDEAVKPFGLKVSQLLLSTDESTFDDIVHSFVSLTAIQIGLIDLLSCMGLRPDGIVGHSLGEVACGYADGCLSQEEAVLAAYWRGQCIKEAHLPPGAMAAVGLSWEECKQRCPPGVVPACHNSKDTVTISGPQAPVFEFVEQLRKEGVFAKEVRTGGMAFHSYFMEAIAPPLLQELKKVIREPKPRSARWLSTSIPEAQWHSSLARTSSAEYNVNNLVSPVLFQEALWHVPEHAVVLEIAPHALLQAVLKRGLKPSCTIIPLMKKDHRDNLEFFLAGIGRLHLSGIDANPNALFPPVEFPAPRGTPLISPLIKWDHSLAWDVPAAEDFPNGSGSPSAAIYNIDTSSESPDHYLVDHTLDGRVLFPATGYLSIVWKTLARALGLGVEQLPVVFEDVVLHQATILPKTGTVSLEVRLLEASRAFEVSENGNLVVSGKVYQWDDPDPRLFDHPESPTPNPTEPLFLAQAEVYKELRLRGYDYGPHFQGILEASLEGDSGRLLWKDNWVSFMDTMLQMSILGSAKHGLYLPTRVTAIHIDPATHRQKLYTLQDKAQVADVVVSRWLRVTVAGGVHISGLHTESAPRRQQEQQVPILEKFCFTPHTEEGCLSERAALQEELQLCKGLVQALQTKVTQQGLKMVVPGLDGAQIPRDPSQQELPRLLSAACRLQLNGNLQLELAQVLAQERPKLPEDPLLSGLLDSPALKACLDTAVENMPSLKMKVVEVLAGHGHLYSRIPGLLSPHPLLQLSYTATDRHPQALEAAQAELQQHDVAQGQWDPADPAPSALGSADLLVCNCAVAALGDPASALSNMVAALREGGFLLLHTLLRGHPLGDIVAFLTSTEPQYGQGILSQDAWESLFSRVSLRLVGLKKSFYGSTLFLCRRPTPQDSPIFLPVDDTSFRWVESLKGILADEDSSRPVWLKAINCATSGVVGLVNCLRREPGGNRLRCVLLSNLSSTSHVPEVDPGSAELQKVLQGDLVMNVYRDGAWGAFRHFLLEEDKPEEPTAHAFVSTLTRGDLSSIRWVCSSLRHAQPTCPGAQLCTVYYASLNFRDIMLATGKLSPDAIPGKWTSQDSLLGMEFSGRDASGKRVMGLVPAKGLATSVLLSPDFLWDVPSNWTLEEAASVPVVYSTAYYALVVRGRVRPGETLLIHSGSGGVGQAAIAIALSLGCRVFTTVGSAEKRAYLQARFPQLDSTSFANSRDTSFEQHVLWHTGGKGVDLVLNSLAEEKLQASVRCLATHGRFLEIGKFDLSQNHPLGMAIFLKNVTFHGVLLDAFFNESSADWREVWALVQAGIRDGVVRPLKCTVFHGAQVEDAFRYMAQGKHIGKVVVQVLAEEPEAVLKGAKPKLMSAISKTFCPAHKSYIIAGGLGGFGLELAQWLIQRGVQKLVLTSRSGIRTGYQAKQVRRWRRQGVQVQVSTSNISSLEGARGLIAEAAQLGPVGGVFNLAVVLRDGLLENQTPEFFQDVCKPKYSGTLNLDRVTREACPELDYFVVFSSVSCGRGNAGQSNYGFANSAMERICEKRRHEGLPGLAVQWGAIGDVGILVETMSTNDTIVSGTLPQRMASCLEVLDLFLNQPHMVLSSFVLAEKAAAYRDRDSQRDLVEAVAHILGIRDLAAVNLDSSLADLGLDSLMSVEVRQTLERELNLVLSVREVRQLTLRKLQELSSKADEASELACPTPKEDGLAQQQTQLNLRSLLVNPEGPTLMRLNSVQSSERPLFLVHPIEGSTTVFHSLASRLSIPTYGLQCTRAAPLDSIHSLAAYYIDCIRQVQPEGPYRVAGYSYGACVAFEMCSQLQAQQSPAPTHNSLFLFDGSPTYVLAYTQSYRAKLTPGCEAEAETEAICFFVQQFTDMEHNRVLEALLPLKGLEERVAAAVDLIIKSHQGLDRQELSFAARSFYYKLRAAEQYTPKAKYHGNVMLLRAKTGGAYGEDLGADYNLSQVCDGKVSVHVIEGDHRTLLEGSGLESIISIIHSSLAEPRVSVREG
Sequence of Mitogen-activated protein kinase 10 (P53779 whole entry): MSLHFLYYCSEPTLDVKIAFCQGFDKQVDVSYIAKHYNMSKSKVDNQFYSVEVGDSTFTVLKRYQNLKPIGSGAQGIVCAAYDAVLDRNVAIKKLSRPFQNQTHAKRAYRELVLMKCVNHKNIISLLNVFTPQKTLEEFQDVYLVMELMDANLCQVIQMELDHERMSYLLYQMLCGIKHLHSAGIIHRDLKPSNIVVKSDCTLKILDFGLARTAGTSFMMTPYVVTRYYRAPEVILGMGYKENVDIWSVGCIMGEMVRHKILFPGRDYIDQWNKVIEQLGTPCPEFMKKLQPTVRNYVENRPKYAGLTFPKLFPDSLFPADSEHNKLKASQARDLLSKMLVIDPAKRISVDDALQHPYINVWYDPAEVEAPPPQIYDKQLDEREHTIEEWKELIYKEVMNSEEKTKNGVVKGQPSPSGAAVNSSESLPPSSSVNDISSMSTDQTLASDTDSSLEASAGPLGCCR
Sequence of 5-hydroxytryptamine receptor 1A (P08908 whole entry): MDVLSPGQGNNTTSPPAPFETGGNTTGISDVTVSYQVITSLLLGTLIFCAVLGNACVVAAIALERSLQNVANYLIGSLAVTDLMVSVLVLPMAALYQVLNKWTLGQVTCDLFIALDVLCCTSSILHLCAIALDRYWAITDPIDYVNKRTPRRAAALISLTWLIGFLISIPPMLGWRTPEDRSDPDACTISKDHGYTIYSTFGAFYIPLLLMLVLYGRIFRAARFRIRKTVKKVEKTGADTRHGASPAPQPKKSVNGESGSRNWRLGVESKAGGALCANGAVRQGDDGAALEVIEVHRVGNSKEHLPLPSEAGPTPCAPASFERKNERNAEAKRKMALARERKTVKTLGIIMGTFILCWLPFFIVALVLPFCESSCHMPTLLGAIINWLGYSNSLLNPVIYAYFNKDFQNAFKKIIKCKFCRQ
Sequence of Protein-tyrosine kinase 2-beta (Q14289 whole entry): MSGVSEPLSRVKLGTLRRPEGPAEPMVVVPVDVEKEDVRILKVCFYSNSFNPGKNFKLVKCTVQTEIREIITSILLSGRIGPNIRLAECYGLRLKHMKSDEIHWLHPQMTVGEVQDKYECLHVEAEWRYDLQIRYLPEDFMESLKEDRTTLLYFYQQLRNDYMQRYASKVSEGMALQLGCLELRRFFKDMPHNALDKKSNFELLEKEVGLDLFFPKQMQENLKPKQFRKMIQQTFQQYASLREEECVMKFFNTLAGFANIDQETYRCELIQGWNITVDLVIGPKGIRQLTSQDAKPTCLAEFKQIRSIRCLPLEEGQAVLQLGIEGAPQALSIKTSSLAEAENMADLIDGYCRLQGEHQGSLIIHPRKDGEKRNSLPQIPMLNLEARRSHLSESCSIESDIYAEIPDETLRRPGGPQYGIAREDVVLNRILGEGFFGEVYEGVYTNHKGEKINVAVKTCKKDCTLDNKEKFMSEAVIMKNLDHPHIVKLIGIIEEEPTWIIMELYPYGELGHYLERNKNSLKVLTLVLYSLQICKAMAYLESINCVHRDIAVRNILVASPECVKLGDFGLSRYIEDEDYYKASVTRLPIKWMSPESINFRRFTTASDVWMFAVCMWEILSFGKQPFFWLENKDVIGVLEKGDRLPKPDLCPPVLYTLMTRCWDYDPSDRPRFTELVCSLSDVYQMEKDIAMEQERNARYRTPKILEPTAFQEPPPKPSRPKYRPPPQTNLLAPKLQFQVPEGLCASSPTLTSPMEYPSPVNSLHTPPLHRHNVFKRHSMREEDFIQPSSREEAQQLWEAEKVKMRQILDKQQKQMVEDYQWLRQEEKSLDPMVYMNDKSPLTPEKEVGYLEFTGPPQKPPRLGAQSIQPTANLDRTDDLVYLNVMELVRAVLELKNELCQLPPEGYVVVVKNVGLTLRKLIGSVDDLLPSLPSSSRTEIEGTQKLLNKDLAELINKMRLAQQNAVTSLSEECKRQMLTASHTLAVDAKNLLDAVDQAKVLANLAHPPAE
Sequence of Induced myeloid leukemia cell differentiation protein Mcl-1 (Q07820 whole entry): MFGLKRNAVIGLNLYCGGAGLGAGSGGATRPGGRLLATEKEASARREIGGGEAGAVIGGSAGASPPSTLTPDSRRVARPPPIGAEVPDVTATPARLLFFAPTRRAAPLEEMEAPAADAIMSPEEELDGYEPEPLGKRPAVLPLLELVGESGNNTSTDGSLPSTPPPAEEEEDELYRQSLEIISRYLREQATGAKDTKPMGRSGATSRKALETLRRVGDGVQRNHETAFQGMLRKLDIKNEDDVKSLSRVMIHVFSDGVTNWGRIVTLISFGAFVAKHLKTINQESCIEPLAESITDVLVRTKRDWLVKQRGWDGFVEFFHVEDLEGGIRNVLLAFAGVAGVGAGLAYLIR

One may read the IC50 as the concentration that gives 50% inhibition. As for `N#Cc1ccc(Nc2nc(-c3ccc(C#N)cc3)cs2)cc1`, the IC50 in assay [1] and in [2] was > 50 µM (not active) each time.
The term EC50 denotes the concentration needed to bring the measured effect to its halfway point. On to `N#Cc1c(NC(=O)c2cc(-n3cnnc3)ccc2Cl)sc2c1CCCC2`, for which the EC50 in [3] is 12.7 µM (active).
For the compound `c1cc2c(cc1Cn1cnnn1)OCO2`, the IC50 in assay [4] was > 100 µM (not active).
On to `COc1ccc(C2CC(c3cccs3)=NN2C(=O)CSc2nc(=O)n3ccc(C)cc3n2)cc1` (stereo not given), for which the IC50 was > 49.8 µM (not active) against Genome polyprotein, 8.11 µM (active) on Fatty acid synthase [5] and 7.51 µM (active) on Fatty acid synthase [6].
For `O=C1NC(=S)/C(=C\c2ccc(-c3ccccc3Cl)o2)S1`, the EC50 in assay [7] was > 300 µM (not active); in assay [8] it was > 300 µM (not active); in assay [10], 3.42 µM (active); at Streptokinase A, 14.7 µM (active); with Streptococcus it was 28.2 µM (active). Also, the IC50 in assay [9] is 194 µM (active); in [11] it was 3.31 µM (active).
As for `CN(C)CCOC(=O)c1cn(Cc2ccccc2)c2ccccc12`, the EC50 in assay [12] is > 50 µM (not active).
One may read the CC50 as the concentration that lowers cell viability or growth by half. `CCOc1ccc2c(c1)OC(c1ccc(OC)cc1)(C(F)(F)F)NC2=O` (stereo not given): the CC50 with Vero was 13.7 µM (active). Further, in assay [13], the IC50 is > 80 µM (inactive).
For `CCCNC(=O)c1ccc(-n2sc3ccccc3c2=O)cc1`, in assay [14], the half-maximal inhibitory concentration (IC50) was 7.48 µM (active).
For the compound `O=C(Nc1cccc(-c2nc3ccccc3[nH]2)c1)c1cccc(NC(=O)c2ccco2)c1`, the IC50 was 68.5 µM (not active) in assay [15], 5.03 µM (active) in assay [17] and 2.5 µM (active) in [18]. The EC50 was 53.7 µM (active) in assay [16] and 57.9 µM (active) in [19].
A word on the AC50: it is the midpoint of the concentration-response curve, whichever way the signal moves. With `CCCOc1ccc(C(=O)C(CN2CCOCC2)c2ccccc2)cc1` (stereo not given), the IC50 in assay [20] was 0.909 µM (active). Moreover, the AC50 in the assay with INS1 was > 60 µM (inactive).
